# Measured values: patent US20110112151A1, “COMPOUND CAPABLE OF INHIBITING 11-BETA HYDROXYSTERIOD DEHYDROGENASE” (priority 2008, published 2011)
# Where two headings read alike, the source gives them in different places.
# Molecular target: T1, 11β-HSD1 (Homo sapiens, UniProt P28845)
# T1 construct: expressed in transfected cells; host or cells: HEK 293 (stably transfected, HEK 293/HSD11B1)
# Assay: 11β-HSD1 HEK assay (cell based assay, SPA)
# Experimental: 11β-HSD1 HEK Assay Protocol (Cell Based Assay)
# 11β-HSD1 activity is measured in whole HEK 293 cells stably transfected with the HSD11B1 gene. Cells are incubated in 96-well microplates in the presence of tritiated substrate. Enzyme activity is determined by measuring the amount of tritated product by scintillation proximity assay (SPA). Assay plates contain internal high and low controls to allow calculation of percentage inhibition.
# 1. […] 2. When the cells are 80% confluent the medium is removed from each well. 100 μl fresh, serum-free, medium containing ^3H-cortisone and test compound in 1% DMSO is added to each well*. Control wells are also dispensed. […] 3. The plate is incubated at 37° C. for the required time period. 4. 50 μl of media is removed from each well and transferred to a microplate containing 100 μl of a pre-incubated mixture of anti-cortisol antibody and SPA bead. The mixture is incubated with gentle shaking until equilibrium is reached, before transferring to a scintillation counter to establish the enzyme activity in each sample.
# 10 μl of compound is dispensed into each well of a 96-well microplate in 10% DMSO at 100 μM concentration. 90 μl media containing ^3H-cortisone is added to each well. The compound/media/substrate mixture is then transferred to the assay plate containing the cells. […]
# [1] = HEK293, at 1 μM, whole HEK 293 cells stably transfected with the HSD11B1 gene, 3H-cortisone substrate, read-out: Activity (inhibition of 11β-HSD1)
# T1 sequence (P28845 whole entry): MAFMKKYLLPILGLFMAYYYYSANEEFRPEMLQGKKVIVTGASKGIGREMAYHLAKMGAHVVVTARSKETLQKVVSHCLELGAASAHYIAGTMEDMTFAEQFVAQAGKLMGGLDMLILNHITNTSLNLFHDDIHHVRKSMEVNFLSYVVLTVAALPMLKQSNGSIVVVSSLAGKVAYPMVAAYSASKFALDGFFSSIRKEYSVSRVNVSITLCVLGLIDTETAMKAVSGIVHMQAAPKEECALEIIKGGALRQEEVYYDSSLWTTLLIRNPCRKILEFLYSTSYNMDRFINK
SMILES,inhibition at 1 µM [1] [%],"inhibition at 1 µM (HEK293, read-out: Activity (inhibition of 11β-HSD1)) [%]"
"Cc1cc(C)c(C(=O)C[S+]([O-])c2ccccn2)c(C)c1 (stereo not shown) [Example 82, 1-mesityl-2-(pyridin-2-ylsulfinyl)ethanone]",< 20,–
"Cc1nnc(S(=O)(=O)CC(=O)C23CC4CC(CC(C4)C2)C3)s1 [Example 79, 1-Adamantan-1-yl-2-(5-methyl-[1,3,4]thiadiazole-2-sulfonyl)-ethanone]",–,> 60
"O=C(C[S+]([O-])c1ccncc1)C12CC3CC(CC(C3)C1)C2 (stereo not shown) [Example 33, 1-(adamantan-1-yl)-2-(pyridine-4-sulfinyl)ethan-1-one]",> 60,–
"Cc1cc(C)c(C(=O)CS(=O)(=O)c2ccccn2)c(C)c1 [Example 75, 2-(Pyridine-2-sulfonyl)-1-(2,4,6-trimethyl-phenyl)-ethanone]",< 20,–
"Cn1ccnc1[S+]([O-])CC(=O)C1(c2ccc(Cl)cc2)CCC1 (stereo not shown) [Example 25, 1-[1-(4-Chloro-phenyl)-cyclobutyl]-2-(1-methyl-1H-imidazole-2-sulfinyl)-ethanone]",< 20,–
"Cc1cc(C)c(C(=O)CSc2nccn2C)c(C)c1 [Example 74, 2-(1-Methyl-1H-imidazol-2-ylsulfanyl)-1-(2,4,6-trimethyl-phenyl)-ethanone]",< 20,–
"O=C(COc1cccc(Cl)n1)C12CC3CC(CC(C3)C1)C2 [Example 58, 1-Adamantan-1-yl-2-(6-chloro-pyridin-2-yloxy)-ethanone]",20 to 60,–
"Cn1cnnc1SCC(=O)C(C)(C)c1ccc(Cl)cc1 [Example 99, 3-(4-Chlorophenyl)-3-methyl-1-(4-methyl-4H-1,2,4-triazol-3-ylthio)butan-2-one]",20 to 60,–
"Cc1cc(C)c(C(=O)CSc2ccccn2)c(C)c1 [Example 73, 2-(Pyridin-2-ylsulfanyl)-1-(2,4,6-trimethyl-phenyl)-ethanone]",< 20,–
"O=C(C[S+]([O-])Cc1ccc(Cl)nc1)C12CC3CC(CC(C3)C1)C2 (stereo not shown) [Example 65, 1-Adamantan-1-yl-2-(6-chloro-pyridin-3-ylmethanesulfinyl)-ethanone]",> 60,–
"Cc1ccc(OCC(=O)C(C)(C)c2ccc(Cl)cc2)cn1 [Example 71, 3-(4-Chloro-phenyl)-3-methyl-1-(6-methyl-pyridin-3-yloxy)-butan-2-one]",> 60,–
"CC(=O)Nc1nnc(S(=O)(=O)CC(=O)C23CC4CC(CC(C4)C2)C3)s1 [Example 93, N-(5-{[2-(Adamantan-1-yl)-2-oxoethane]sulfonyl}-1,3,4-thiadiazol-2-yl)acetamide]",> 60,–
"Cn1cnnc1SCC(=O)C1(c2ccc(Cl)cc2)CCC1 [Example 108, 1-(1-(4-Chlorophenyl)cyclobutyl)-2-(4-methyl-4H-1,2,4-triazol-3-ylthio)ethanone]",20 to 60,–
"Cn1ccnc1S(=O)(=O)CC(=O)C1(c2ccc(Cl)cc2)CC1 [Example 3, 1-[1-(4-Chloro-phenyl)-cyclopropyl]-2-(1-methyl-1H-imidazole-2-sulfonyl)-ethanone]",< 20,–
"O=C(CS(=O)(=O)Cc1ccc(C(F)(F)F)nc1)C12CC3CC(CC(C3)C1)C2 [Example 69, 1-Adamantan-1-yl-2-(6-trifluoromethyl-pyridin-3-ylmethanesulfonyl)-ethanone]",20 to 60,–
"O=C(CS(=O)(=O)Cc1cccnc1)C12CC3CC(CC(C3)C1)C2 [Example 9, 1-Adamantan-1-yl-2-(pyridin-3-ylmethanesulfonyl)-ethanone]",> 60,–
"O=C(CSc1ccccn1)C1(c2ccc(Cl)cc2)CCC1 [Example 20, 1-[1-(4-Chloro-phenyl)-cyclobutyl]-2-(pyridin-2-ylsulfanyl)-ethanone]",20 to 60,–
"Cn1cnnc1SCC(=O)C1(c2ccc(Cl)cc2)CC1 [Example 100, 1-(1-(4-Chlorophenyl)cyclopropyl)-2-(4-methyl-4H-1,2,4-triazol-3-ylthio)ethanone]",20 to 60,–
"O=C(CSCc1ccc(C(F)(F)F)nc1)C12CC3CC(CC(C3)C1)C2 [Example 59, 1-Adamantan-1-yl-2-(6-trifluoromethyl-pyridin-3-ylmethylsulfanyl)-ethanone]",20 to 60,–
"O=C(CS(=O)(=O)Cc1ccncc1)C12CC3CC(CC(C3)C1)C2 [Example 83, 1-Adamantan-1-yl-2-(pyridin-4-ylmethanesulfonyl)-ethanone]",> 60,–
"Cn1ccnc1SCC(=O)C1(c2ccc(Cl)cc2)CCCC1 [Example 41, 1-[1-(4-Chloro-phenyl)-cyclopentyl]-2-(1-methyl-1H-imidazol-2-ylsulfanyl)-ethanone]",20 to 60,–
"Cc1cccc(S(=O)(=O)CC(=O)C23CC4CC(CC(C4)C2)C3)n1 [Example 30, 1-(adamantan-1-yl)-2-[(6-methylpyridine-2-)sulfonyl]ethan-1-one]",> 60,–

SMILES,inhibition at 1 µM [1] [%],"inhibition at 1 µM (HEK293, read-out: Activity (inhibition of 11β-HSD1)) [%]"
"Cn1ccnc1SCC(=O)C1(c2ccc(Cl)cc2)CCC1 [Example 21, 1-[1-(4-Chloro-phenyl)-cyclobutyl]-2-(1-methyl-1H-imidazol-2-ylsulfanyl)-ethanone]",20 to 60,–
"O=C(C[S+]([O-])c1ccccn1)C1(c2ccc(Cl)cc2)CC1 (stereo not shown) [Example 5, 1-[1-(4-Chloro-phenyl)-cyclopropyl]-2-(pyridine-2-sulfinyl)-ethanone]",20 to 60,–
"O=C(C[S+]([O-])c1ccccn1)C1(c2ccc(Cl)cc2)CCCCC1 (stereo not shown) [Example 49, 1-[1-(4-Chloro-phenyl)-cyclohexyl]-2-(pyridine-2-sulfinyl)-ethanone]",< 20,–
O=C(CS(=O)(=O)c1ccccn1)C1(c2ccc(Cl)cc2)CCC1 [Example 22],< 20,–
"O=C(CSc1ccccn1)C12CC3CC(CC(C3)C1)C2 [Example 12, 1-Adamantan-1-yl-2-(pyridin-2-ylsulfanyl)-ethanone]",> 60,–
"Cn1ccnc1S(=O)(=O)CC(=O)C1(c2ccc(Cl)cc2)CCCC1 [Example 43, 1-[1-(4-Chloro-phenyl)-cyclopentyl]-2-(1-methyl-1H-imidazole-2-sulfonyl)-ethanone]",20 to 60,–
"O=C(CS(=O)(=O)Cc1ccccn1)C12CC3CC(CC(C3)C1)C2 [Example 16, 1-Adamantan-1-yl-2-(pyridin-2-ylmethanesulfonyl)-ethanone]",> 60,–
"O=C(COCc1ccc(C(F)(F)F)nc1)C12CC3CC(CC(C3)C1)C2 [Example 56, 1-Adamantan-1-yl-2-(6-trifluoromethyl-pyridin-3-ylmethoxy)-ethanone]",20 to 60,–
"O=C(CSc1ccccn1)C1(c2ccc(Cl)cc2)CCCCC1 [Example 47, 1-[1-(4-Chloro-phenyl)-cyclohexyl]-2-(pyridin-2-ylsulfanyl)-ethanone]",20 to 60,–
"O=C(CS(=O)(=O)c1ccccn1)C1(c2ccc(Cl)cc2)CC1 [Example 6, 1-[1-(4-Chloro-phenyl)-cyclopropyl]-2-(pyridine-2-sulfonyl)-ethanone]",< 20,–
"O=C(COc1cncc(Cl)c1)C12CC3CC(CC(C3)C1)C2 [Example 57, 1-Adamantan-1-yl-2-(5-chloro-pyridin-3-yloxy)-ethanone]",20 to 60,–
"Cc1cc(C)c(C(=O)COc2cccnc2)c(C)c1 [Example 72, 2-(Pyridin-3-yloxy)-1-(2,4,6-trimethyl-phenyl)-ethanone]",< 20,–
"Cn1cnnc1[S+]([O-])CC(=O)C1(c2ccc(Cl)cc2)CCC1 (stereo not shown) [Example 109, 1-(1-(4-Chlorophenyl)cyclobutyl)-2-(4-methyl-4H-1,2,4-triazol-3-ylsulfinyl)ethanone]",< 20,–
"O=C(C[S+]([O-])c1ccc(C(F)(F)F)cn1)C12CC3CC(CC(C3)C1)C2 (stereo not shown) [Example 68, 1-Adamantan-1-yl-2-(5-trifluoromethyl-pyridine-2-sulfinyl)-ethanone]",20 to 60,–
"Cn1ccnc1S(=O)(=O)CC(=O)C1(c2ccc(Cl)cc2)CCC1 [Example 24, 1-[1-(4-Chloro-phenyl)-cyclobutyl]-2-(1-methyl-1H-imidazole-2-sulfonyl)-ethanone]",< 20,–
"O=C(CSc1ccccn1)C1(c2ccc(Cl)cc2)CC1 [Example 4, 1-[1-(4-Chloro-phenyl)-cyclopropyl]-2-(pyridin-2-ylsulfanyl)-ethanone]",< 20,–
"O=C(CSCc1ccncc1)C12CC3CC(CC(C3)C1)C2 [Example 81, 1-Adamantan-1-yl-2-(pyridin-4-ylmethylsulfanyl)-ethanone]",> 60,–
"Cn1ccnc1[S+]([O-])CC(=O)C1(c2ccc(Cl)cc2)CC1 (stereo not shown) [Example 2, 1-[1-(4-Chloro-phenyl)-cyclopropyl]-2-(1-methyl-1H-imidazole-2-sulfinyl)-ethanone]",< 20,–
"O=C(CS(=O)(=O)c1ccccn1)C1(c2ccc(Cl)cc2)CCCCC1 [Example 48, 1-[1-(4-Chloro-phenyl)-cyclohexyl]-2-(pyridine-2-sulfonyl)-ethanone]",20 to 60,–
"NC(=O)c1ccc(SCC(=O)C23CC4CC(CC(C4)C2)C3)nc1 [Example 37, 6-(2-Adamantan-1-yl-2-oxo-ethylsulfanyl)-nicotinamide]",> 60,–
"COc1cccnc1COCC(=O)C12CC3CC(CC(C3)C1)C2 [Example 86, 2-((3-Methoxypyridin-2-yl)methoxy)-1-adamantylethanone]",> 60,–
